Experimental data as given in article PMC4791274, “Cerdulatinib, a novel dual SYK/JAK kinase inhibitor, has broad anti-tumor activity in both ABC and GCB types of diffuse large B cell lymphoma” (Oncotarget, 2015).

Tests used:
[1] = test system: patients with CLL and NHL; design: method as in Flinn I, et al. 2015 ASCO annual meeting Abstract #8531; details: oral, ref Flinn I, et al. 2015 ASCO annual meeting Abstract #8531; cited from earlier work
ITK = details: biochemical assay; cited from earlier work
[2] = test system: primary human DLBCL samples; assay: MTT viability of primary DLBCL samples; type: cell-based; details: 0.5 μM and 1 μM, 72 h, six primary samples
Experimental: GCB cell lines OCI-LY1, OCI-LY4, OCI-LY8, OCI-LY18, SUDHL6 and VAL were cultured in Iscove's Modified Dulbecco's Medium (IMDM) supplemented with 20% Fetal Bovine Serum (FBS) and 100 μg/mL penicillin/streptomycin. ABC cell lines SUDHL2 and HBL1 were cultured in RPMI1640 supplemented with 20% FBS and 100 μg/mL penicillin/streptomycin. OCI-LY3 cells were grown in RPMI1640 supplemented with 20% FBS, 100 μg/ml penicillin/streptomycin and HEPES. ABC cell lines OCI-LY10 was cultured in Iscove's Modified Dulbecco's Medium (IMDM) supplemented with 20% human serum and 100 μg/mL penicillin/streptomycin. ABC cell line U2932 was cultured in high glucose RPMI1640 supplemented with 20% FBS, 100 μg/ml penicillin/streptomycin. All cells were maintained in a humidified 37°C/5% CO2 incubator. […]
DLBCL cell lines were treated with various concentrations of cerdulatinib for up to 72 h. The metabolic activities of cells were determined with MTT assay according to manufacturer's instruction (Roche Applied Science, Indianapolis, IN) at 72 h time point. IC50 was calculated using the Sigma Plot generated with GraphPad Prism 6 software (GraphPad, La Jolla, CA). Cell growth was measured at every 24 h counting live cells with flow cytometry as previously described. Cells were collected every 24 h and cell viability was determined by the PE Annexin V Apoptosis Detection Kit I (BD Biosciences).

For `CCS(=O)(=O)N1CCN(c2ccc(Nc3ncc(C(N)=O)c(NC4CC4)n3)cc2)CC1` [cerdulatinib], the target tumor reductions [1] is listed as “greater than 50%”, the IC50 (ITK) is listed as 194 nM and the “response of primary DLBCL cells (viability, MTT)” value [2] is listed as “responded to cerdulatinib in a concentration-dependent manner”.
